Each block holds one molecule with its values, some of them ahead of it.
How the values were obtained:
HCT-116 [1] = assay: Cytotoxicity against human HCT-116 cells assessed as reduction in cell viability incubated for 48 hrs by SRB assay; assay type: functional, cell-based; conditions: HCT-116, 48 h
HT-29 [2] = assay: Cytotoxicity against human HT-29 cells assessed as reduction in cell viability incubated for 48 hrs by SRB assay; assay type: functional, cell-based; conditions: HT-29, 48 h
HT-29 [3] = assay: Cytotoxicity against human HT-29 cells assessed as reduction in cell viability by MTT assay; assay type: functional, cell-based
MDA-MB-231 [4] = assay: Antiproliferative activity against human MDA-MB-231 cells assessed as cell growth inhibition incubated for 96 hrs by MTT assay; assay type: functional, cell-based; conditions: MDA-MB-231, 96 h
HCT-116 [5] = assay: Cytotoxicity against human HCT-116 cells assessed as reduction in cell viability incubated for 96 hrs by MTT assay; assay type: functional, cell-based; conditions: HCT-116, 96 h
MDA-MB-231 [6] = assay: Cytotoxicity against human MDA-MB-231 cells assessed as cell growth inhibition measured after 48 hrs by SRB assay; assay type: functional, cell-based; conditions: MDA-MB-231, 48 h
MCF7 = assay: cells; conditions: Homo sapiens, MCF7, 48 h
Description: Anticancer activity against human MCF7 cells assessed as inhibition of cell growth incubated for 48 hrs by SRB assay

T47D = assay: Anticancer activity against human T47D cells assessed as cell growth inhibition; assay type: functional, cell-based

SMILES: CCCc1cc(=O)oc2cc(Nc3nc(-c4ccc(Cl)cc4)cs3)ccc12
IC50 (HCT-116 [1]): 250 nM
IC50 (HT-29 [2]): 250 nM

SMILES: Cc1cc(=O)oc2cc(OCn3cc(CCCO[C@H]4O[C@@H]5O[C@@]6(C)CC[C@H]7[C@H](C)CC[C@@H]([C@H]4C)[C@@]57OO6)nn3)ccc12
IC50 (HT-29 [3]): > 100000 nM

SMILES: Cc1ccc2oc(=O)cc(OCn3cc(CCCO[C@H]4O[C@@H]5O[C@@]6(C)CC[C@H]7[C@H](C)CC[C@@H]([C@H]4C)[C@@]57OO6)nn3)c2c1
IC50 (MDA-MB-231 [4]): 39 nM
IC50 (HCT-116 [5]): 39 nM

SMILES: C[C@H]1[C@@H](OCCc2cn(COc3cc(=O)oc4ccccc34)nn2)O[C@@H]2O[C@@]3(C)CC[C@H]4[C@H](C)CC[C@@H]1[C@@]24OO3
IC50 (HCT-116 [5]): > 100000 nM

SMILES: Cc1ccc2oc(=O)cc(Cn3cc(CO[C@H]4O[C@@H]5O[C@@]6(C)CC[C@H]7[C@H](C)CC[C@@H]([C@H]4C)[C@@]57OO6)nn3)c2c1
IC50 (MDA-MB-231 [6]): > 100000 nM

IC50 (MCF7): 5410 nM
SMILES: Cc1ccc(/N=N/c2sc(N3N=C(c4c(O)c5ccccc5oc4=O)CC3c3ccc(N(C)C)cc3)nc2-c2ccccc2)cc1 (stereo not given)

SMILES: Cc1c(C)c2ccc(OCCCn3cc(CO[C@H]4O[C@@H]5O[C@@]6(C)CC[C@H]7[C@H](C)CC[C@@H]([C@H]4C)[C@@]57OO6)nn3)cc2oc1=O
IC50 (HT-29 [3]): 1220 nM

SMILES: C[C@H]1[C@@H](OCCCc2cn(COc3cc(=O)oc4ccccc34)nn2)O[C@@H]2O[C@@]3(C)CC[C@H]4[C@H](C)CC[C@@H]1[C@@]24OO3
IC50 (MDA-MB-231 [4]): 39 nM
IC50 (HCT-116 [5]): 39 nM

SMILES: Cc1ccc2c(OCn3cc(CCCO[C@H]4O[C@@H]5O[C@@]6(C)CC[C@H]7[C@H](C)CC[C@@H]([C@H]4C)[C@@]57OO6)nn3)cc(=O)oc2c1
IC50 (MDA-MB-231 [4]): 39 nM
IC50 (HCT-116 [5]): 39 nM

SMILES: C[C@H]1[C@@H](OCCc2cn(COc3ccc4c(C(F)(F)F)cc(=O)oc4c3)nn2)O[C@@H]2O[C@@]3(C)CC[C@H]4[C@H](C)CC[C@@H]1[C@@]24OO3
IC50 (HT-29 [3]): 2460 nM

SMILES: C[C@H]1[C@@H](OCc2cn(CCOc3ccc4c(C(F)(F)F)cc(=O)oc4c3)nn2)O[C@@H]2O[C@@]3(C)CC[C@H]4[C@H](C)CC[C@@H]1[C@@]24OO3
IC50 (HT-29 [3]): 50 nM

SMILES: Cc1cc(C)c2c(Cn3cc(CO[C@H]4O[C@@H]5O[C@@]6(C)CC[C@H]7[C@H](C)CC[C@@H]([C@H]4C)[C@@]57OO6)nn3)cc(=O)oc2c1
IC50 (MDA-MB-231 [6]): > 100000 nM

SMILES: Cc1cc(C)c2oc(=O)cc(OCn3cc(CCO[C@H]4O[C@@H]5O[C@@]6(C)CC[C@H]7[C@H](C)CC[C@@H]([C@H]4C)[C@@]57OO6)nn3)c2c1
IC50 (HCT-116 [5]): > 100000 nM

SMILES: CCOC(=O)c1cc2ccc(OCCn3cc(CO[C@H]4O[C@@H]5O[C@@]6(C)CC[C@H]7[C@H](C)CC[C@@H]([C@H]4C)[C@@]57OO6)nn3)cc2oc1=O
IC50 (HT-29 [3]): 50 nM

SMILES: CCCc1cc(=O)oc2cc(Nc3nc(-c4ccc(Br)cc4)cs3)ccc12
IC50 (HCT-116 [1]): 260 nM
IC50 (HT-29 [2]): 250 nM

SMILES: Cc1c(C)c2ccc(OCn3cc(CCO[C@H]4O[C@@H]5O[C@@]6(C)CC[C@H]7[C@H](C)CC[C@@H]([C@H]4C)[C@@]57OO6)nn3)cc2oc1=O
IC50 (HT-29 [3]): 2460 nM

SMILES: Cc1ccc2c(Cn3cc(CCO[C@H]4O[C@@H]5O[C@@]6(C)CC[C@H]7[C@H](C)CC[C@@H]([C@H]4C)[C@@]57OO6)nn3)cc(=O)oc2c1
IC50 (MDA-MB-231 [6]): > 100000 nM

SMILES: Cc1ccc2c(OCn3cc(CCCO[C@H]4O[C@@H]5O[C@@]6(C)CC[C@H]7[C@H](C)CC[C@@H]([C@H]4C)[C@@]57OO6)nn3)cc(=O)oc2c1C
IC50 (MDA-MB-231 [4]): 39 nM
IC50 (HCT-116 [5]): 39 nM

SMILES: Cc1c(Cl)c(=O)oc2cc(OCn3cc(CCO[C@H]4O[C@@H]5O[C@@]6(C)CC[C@H]7[C@H](C)CC[C@@H]([C@H]4C)[C@@]57OO6)nn3)ccc12
IC50 (HT-29 [3]): 2460 nM

SMILES: Cc1cccc2c(OCn3cc(CCCO[C@H]4O[C@@H]5O[C@@]6(C)CC[C@H]7[C@H](C)CC[C@@H]([C@H]4C)[C@@]57OO6)nn3)cc(=O)oc12
IC50 (MDA-MB-231 [4]): 39 nM
IC50 (HCT-116 [5]): 39 nM

SMILES: Cc1cc(C)c2c(OCn3cc(CCCO[C@H]4O[C@@H]5O[C@@]6(C)CC[C@H]7[C@H](C)CC[C@@H]([C@H]4C)[C@@]57OO6)nn3)cc(=O)oc2c1
IC50 (MDA-MB-231 [4]): 39 nM
IC50 (HCT-116 [5]): 39 nM

SMILES: Cc1c(Cl)c(=O)oc2cc(OCn3cc(CCCO[C@H]4O[C@@H]5O[C@@]6(C)CC[C@H]7[C@H](C)CC[C@@H]([C@H]4C)[C@@]57OO6)nn3)ccc12
IC50 (HT-29 [3]): > 100000 nM

SMILES: Cc1cc(C)c2oc(=O)cc(OCn3cc(CCCO[C@H]4O[C@@H]5O[C@@]6(C)CC[C@H]7[C@H](C)CC[C@@H]([C@H]4C)[C@@]57OO6)nn3)c2c1
IC50 (MDA-MB-231 [4]): 39 nM
IC50 (HCT-116 [5]): 39 nM

SMILES: C[C@H]1[C@@H](OCCc2cn(Cc3cc(=O)oc4cc(O)ccc34)nn2)O[C@@H]2O[C@@]3(C)CC[C@H]4[C@H](C)CC[C@@H]1[C@@]24OO3
IC50 (MDA-MB-231 [6]): > 100000 nM

IC50 (T47D): 900 nM
SMILES: O=C(/C=C/c1ccc(N2CCOCC2)cc1)c1cc2ccccc2oc1=O

SMILES: Cc1ccc2oc(=O)cc(Cn3cc(CCO[C@H]4O[C@@H]5O[C@@]6(C)CC[C@H]7[C@H](C)CC[C@@H]([C@H]4C)[C@@]57OO6)nn3)c2c1
IC50 (MDA-MB-231 [6]): > 100000 nM
